Measurements from patent US11883416B2, “Methods and compositions for the treatment of IL13Ra2—overexpressing cancer” (CONSEJO SUPERIOR DE INVESTIGACIONES CIENTÍFICAS (CSIC), priority 2020, dated 2024).
“Also recorded” adds a separate entry of the source.

Columns and labels:
U87MG cells [1] = test: MTT proliferation assay with IL-13; type: cell-based, human; conditions: IL-13, Claramine 2 μM
Method: (§1) FIG. 5. […] B) KM12SM cells were subjected to cell adhesion. C) KM12SM and U87MG cells were subjected to MTT assays. The three cell lines were subjected to D) migration and E) invasion assays. All the experiments were done in the presence or absence of IL-13, Claramine and/or anti-IL13Rα2 blocking antibodies.
(§2) Proliferation assays have been previously described. To assess cell survival to oxidative stress, 10^4 cells were seeded per well on 96-well plates and incubated for 24 h in DMEM containing 1% serum in presence of 1 mM H2O2, followed by 1 h incubation with MTT. Cell viability was determined by A560 nm and compared with untreated cells.
(§3) Next, the effect of the PTP1B inhibitor Claramine on the pro-invasive effects of IL-13 was investigated. First, the cellular toxicity of Claramine was studied at different doses. Claramine at 5 μM caused around 50% decrease in cell survival, but had no effect at 2 μM, which was used in the remaining experiments (data not shown). […] The effects of Claramine on cell adhesion, migration, invasion, and, to a minor extent, proliferation mimicked the effects of PTP1B silencing in the three types of cancer cells (FIG. 5 B-E).

KM12SM cells [2] = test: MTT proliferation assay with IL-13; type: cell-based, human; conditions: IL-13, Claramine 2 μM
Method: as §1, §2, §3

U87MG cells [3] = test: Western blot of pSrc Y530 in IL-13-treated cells; type: cell-based, human; conditions: 2 μM Claramine, IL13-treated U87MG
Method: as §1
(§4) Western blot assays were done as previously described.
as §3

KM12SM cells [4] = test: Western blot of pSrc Y530 in IL-13-treated cells; type: cell-based, human; conditions: 2 μM Claramine, IL13-treated KM12SM
Method: as §1, §4, §3

A2780 cells [5] = test: Western blot of pSrc Y530 in IL-13-treated cells; type: cell-based, human; conditions: 2 μM Claramine, IL13-treated A2780
Method: as §1, §4, §3

U87MG cells [6] = test: IL-13-triggered migration (wound healing) assay; type: cell-based, human; conditions: IL-13, Claramine 2 μM, trifluoroacetate salt
Method: as §1
(§5) Adhesion, wound healing and invasion assays have been previously reported.
as §3

KM12SM cells [7] = test: IL-13-triggered migration (wound healing) assay; type: cell-based, human; conditions: IL-13, Claramine 2 μM, trifluoroacetate salt
Method: as §1, §5, §3

A2780 cells [8] = test: IL-13-triggered migration (wound healing) assay; type: cell-based, human; conditions: A2780, IL-13, Claramine 2 μM; trifluoroacetate salt
Method: as §1, §5, §3

U87MG cells [9] = test: IL-13-triggered invasion assay; type: cell-based, human; conditions: IL-13, Claramine 2 μM, trifluoroacetate salt
Method: as §1, §5, §3

KM12SM cells [10] = test: IL-13-triggered invasion assay; type: cell-based, human; conditions: IL-13, Claramine 2 μM, trifluoroacetate salt
Method: as §1, §5, §3

A2780 cells [11] = test: IL-13-triggered invasion assay; type: cell-based, human; conditions: A2780, IL-13, Claramine 2 μM; trifluoroacetate salt
Method: as §1, §5, §3

U251 cells [12] = test: GBM subcutaneous xenograft tumor growth; type: in vivo, NSG mice
Method: (§6) FIGS. 7A-7E show PTP1B inhibition increases survival in CRC and glioblastoma mouse models. […] Murine β-actin amplification was used as a loading control.
(§7) For GBM xenografts, NSG mice were subcutaneously inoculated with U251 cells. Then, mice were treated intraperitoneally with 7 doses of Claramine (every three days) starting day 15 after implantation (a total of 2 mg/kg of body weight). The size of subcutaneous tumors was measured every 2 days. After euthanasia, tumors were isolated and the extracts subjected to Western blot analysis to determine IL13Rα2 and PTP1B activation. Liver homing and metastasis experiments in Swiss nude mice have been described. For CRC metastasis, mice were treated with the same dose of Claramine as above. Animals were weighed to study the effects on food intake and tolerance to the treatment.
Next, the in vivo effect of Claramine on GBM tumor growth and intracranial inoculation was investigated. First, mice were subcutaneously inoculated with U251 cells and xenografts were allowed to grow for 15 days before starting i.p. treatment with Claramine (FIG. 7C). Tumors in treated mice stop growing for the duration of the treatment when compared with non-treated mice. […] In addition, the involvement of IL13Rα2 and PTP1B in the tumor growth was studied using xenograft tissues. A significant increase of PTP1B phosphorylation (3-5 times) in vivo compared to cells in culture was found. […] An increased expression of IL13Rα2 in the xenografts was also noticed.

[13] = type: cell-based; conditions: data not shown
Method: as §3

U251 cells [14] = test: phosphorylation of insulin receptor substrate 1 (IRS-1); type: cell-based, human; conditions: U251 cells treated with IL-13 and Claramine
Source text: (§8) As PTP1B silencing or Claramine treatment might modulate glucose and energy homeostasis including insulin signaling, the effect of IL-13 on the glucose uptake and insulin signaling was also investigated. IL-13 increased the glucose uptake in GMB cells but not in CRC cells (data not shown). […] The phosphorylation of insulin receptor substrate 1 (IRS-1) in CRC and GBM cells treated with IL-13 and Claramine was then studied. A strong phosphorylation of IRS-1 in U251 cells treated with IL-13 was found. In contrast, phosphorylation of IRS-1 in KM12SM cells was much weaker, without differences after IL-13 addition. […] Together, these studies support that Claramine effect on tumor cells seems to be independent of the glucose homeostasis.

KM12SM cells [15] = test: as above; type: cell-based, human; conditions: KM12SM cells treated with IL-13 and Claramine
Source text: as §8

KM12SM cells [16] = test: IL-13-induced cell adhesion to Matrigel; type: cell-based, human; conditions: IL-13 10 ng/ml, Claramine 2 μM, trifluoroacetate salt
Method: as §1, §5, §3

KM12SM cells [17] = test: colorectal cancer liver metastasis model, intrasplenic inoculation; type: in vivo, Swiss nude mice
Method: as §6, §7
Finally, the in vivo effects of PTP1B silencing or inhibition in colorectal cancer and glioblastoma mouse models were investigated. Given the high homology between murine and human IL-13, it was hypothesized that it was unnecessary to treat the mice with exogenous human IL-13 (11). Fora further confirmation, human and murine IL-13 were compared in an invasion experiment. Both IL-13 promoted a similar pro-invasive capacity on human cancer cells (data not shown). Then, the effect of PTP1B silencing on the capacity for liver homing of KM12SM cells inoculated in the spleen of nude mice was examined. As a surrogate marker for homing, human GAPDH was detected in the livers of mice inoculated with control cells but not in those inoculated with PTP1B-silenced cells (FIG. 7A). Then, the effects of Claramine on mice survival in colorectal cancer metastasis were investigated. Forty-eight h after spleen inoculation with CRC cells, mice were treated intraperitoneally (i.p.) with Claramine for two weeks on alternate days, with a total dose of 49 μg/mouse.

GBM12 PDX = test: intracranial model of GBM; type: in vivo, athymic nude mice
Source text: as §6
For intracranial experiments, athymic nude male mice were purchased from Jackson Laboratories. All experiments were approved by the Northwestern University Institutional Animal Care and Use Committee (IACUC). For the intracranial implantation of cannula and tumor cells, 6-8 weeks old […] mice were first anesthetized with a ketamine HCl (25 mg/ml)/xylazine (2.5 mg/ml) cocktail. A previously established surgical procedure was utilized in this study with a small variation reflecting the cannula implantation. For that, a custom-made 26 gauge sterile guide cannula (Plastics One, Roanoke, VA) was installed into the brain through a burr hole at 2 mm depth and secured with tissue glue (3M, St Paul, MN). For the glioma PDX cells implantation, a 33-gauge sterile syringe was inserted into the guide cannula at 3 mm depth following by infusion of 2.5 μl of 10^5 GBM12 cells. The skin incision was closed with surgical glue around the implantation site. The extracranial end of the cannula was then covered with a 33-gauge protection dummy cannula. The surgical procedure was followed with a standard post-surgery care according to the approved protocol. The intracranial injection of Claramine through cannula was done in 4 fractions for a total 4-8 mg/kg starting day 7 after tumor implantation and every 3 days after that. For systemic treatment, Claramine was delivered intravenously in 4 fractions for a total 8, 15 or 30 mg/kg starting day 7 after tumor implantation and every 3 days after that. Sterile 0.9% saline solution served as a negative control in all experiments.
Finally, an intracranial model of GBM using the GBM12 PDX that expresses high amounts of IL13Rα2 was tested. Tumors were implanted intracranially for seven days before starting the treatment with four doses of Claramine for a total of 4 mg/kg or 8 mg/kg (FIG. 7E). The median survival for the treated mice increased up to 36-39 days from 27 days of the control mice.

GBM cells = test: 2-NBDG glucose uptake assay; type: cell-based, human; conditions: data not shown
Method: Flow cytometry was performed as previously described. For IL13Rα2 internalization assays, cells were starved for 3 h, detached with 2 mM EDTA, incubated 30 min with IL-13 at 37° C., primary and secondary antibodies for 30 min at 4° C. and analyzed in the cytofluorimeter as previously described. For glucose uptake determination, cells were incubated with IL-13 and/or Claramine and subjected to the assays using 2-NBDG glucose uptake assays kit (BioVision) according to manufacturer's instructions. Glucose uptake was quantified in the cytofluorimeter.
as §8

[18] = MTT assay for survival to oxidative stress (IL-13 promoted cell survival); type: cell-based; conditions: data not shown
Method: as §2, §3

U251 GBM cells = test: Western blot of EGF and IL-13 signaling (pEGFR Y1068, pPTP1B Y66, pSrc Y419); type: cell-based, human
Method: FIG. 6. […] (A) U251 cells were treated with EGF, IL-13 or both, with or without Claramine. Cell extracts were analyzed by western blot to detect pEGFR Y1068, pPTP1B Y66, and pSrc Y419. B) U251 cells silenced for EGFR, IL13Rα2 or control cellswere treated with EGF or IL-13 in the presence or absence of Claramine. Cells were lysed and whole extracts were analyzed by western blot to detect pEGFR Y1068, pPTP1B Y66 and pSrc Y419.
as §4
EGFR is a substrate of PTP1B and might cooperate with IL13Rα2 in GBM invasion. To determine whether PTP1B participates in the modulation of the EGFR pathway besides the IL13Rα2, the effect of Claramine on EGF and IL-13 signaling in GBM was investigated. […] PTP1B Tyr66 was also phosphorylated by EGF and IL-13, indicating the participation of PTP1B in both pathways.

[19] = U251 cells silenced for EGFR, IL13Rα2 or control, FIG. 6B

For `CC(C)CCC[C@@H](C)[C@H]1CC[C@H]2[C@@H]3C[C@@H](NCCCNCCCCNCCCN)C4C[C@@H](O)CC[C@]4(C)[C@H]3CC[C@]12C.O=C(O)C(F)(F)F` (stereo partly drawn) [Claramine, (3β, 6β)-6-[[3-[[4-[(3-Aminopropyl)amino]butyl]amino]propyl]amino]-cholestan-3-ol trifluoroacetate salt], the “proliferation (MTT)” value (U87MG cells [1]) was “inhibited”, the “proliferation (MTT)” value (KM12SM cells [2]) was “inhibited” and the “phosphorylation of Src Tyr530” value (U87MG cells [3]) was “preserved”. For the same molecule, the “phosphorylation of Src Tyr530” value (KM12SM cells [4]) was “preserved”, the “phosphorylation of Src Tyr530” value (A2780 cells [5]) was “preserved” and the cell migration (U87MG cells [6]) was “inhibit”. For the same molecule, the cell migration (KM12SM cells [7]) was “inhibit”, the cell migration (A2780 cells [8]) was “inhibit” and the cell invasion (U87MG cells [9]) was “inhibit”. The cell invasion (KM12SM cells [10]) was “inhibit”, the cell invasion (A2780 cells [11]) was “inhibit” and the “phosphorylation of PTP1B in xenograft tissues” value (U251 cells [12]; Western blot of tumor extracts) was “moderate inhibition”. The “toxicity / weight of the animals” value (U251 cells [12]; during i.p. treatment with Claramine, trifluoroacetate salt) was “remained constant; also recorded: No Claramine toxicity was observed”, the tumor growth (U251 cells [12]; i.p. treatment starting 15 days after implantation, 7 doses, total 2 mg/kg, trifluoroacetate salt) was “significantly inhibited; also recorded: stop growing; also recorded: regression” and the “effect on cell survival” value ([13]; Claramine at 2 μM) was “no effect”. For the same molecule, the “decrease in cell survival” value ([13]; Claramine at 5 μM) was “around 50%”, the IRS-1 phosphorylation (U251 cells [14]) was “did not affect” and the IRS-1 phosphorylation (KM12SM cells [15]) was “did not affect”. For the same molecule, the “IL-13-induced cell adhesion to Matrigel” value (KM12SM cells [16]) was “inhibited; also recorded: abolished”, the “mice survival (Kaplan-Meier)” value (KM12SM cells [17]; KM12SM intrasplenic, p<0.001) was “significantly increased” and the “state of treated mice at sacrifice” value (KM12SM cells [17]; day 100 post-inoculation, total dose 49 μg/mouse i.p.) was “without symptoms of the disease, presence of metastatic nodes or weight loss”. The “protection against liver metastases” value (KM12SM cells [17]; i.p., two weeks on alternate days, total dose 49 μg/mouse, trifluoroacetate salt) was “complete protection; also recorded: complete inhibition”, the “mice survival (Kaplan-Meier), treated versus control” value (GBM12 PDX; GBM12 PDX intracranial, p<0.001, trifluoroacetate salt) was “significantly increased; also recorded: statistically significant difference in survival; also recorded: considerable increase” and the “survival up to” value (GBM12 PDX; four doses, total of 4 mg/kg or 8 mg/kg, from day 7) was 70-72 days post-inoculation. The median survival (GBM12 PDX; four doses, total of 4 mg/kg or 8 mg/kg, from day 7, control mice 27 days) was 36 to 39 days, the IL-13-increased glucose uptake (GBM cells) was “did not inhibit” and the “IL-13 promoted cell survival” value [18] was “significant reduction”. The EGFR activation (U251 GBM cells; [19]) was “suppressed”, the Src activation (U251 GBM cells; [19]) was “suppressed” and the “activation of EGFR (pEGFR Y1068) by EGF and IL-13” value (U251 GBM cells; U251 cells, FIG. 6A) was “inhibited”. For the same molecule, the “activation of Src (pSrc Y419) by EGF and IL-13” value (U251 GBM cells; U251 cells, FIG. 6A) was “inhibited”.
